Experimental data: article PMC5786495 (Cell, 2017)

System: NKI2 TCR-transduced peripheral blood lymphocytes
Test: IFNγ production by NKI2-transduced lymphocytes with peptide-loaded JY cells
Type: cell-based, human
Details: NKI2 transduced T cells

ALDSRSEHFM
potency of stimulation relative to CDK4 neoantigen ALDPHSGHFV: as potently as the CDK4 neoantigen
